We go through nine molecules from article PMC9266216, “Chemical Characterization, α-Glucosidase, α-Amylase and Lipase Inhibitory Properties of the Australian Honey Bee Propolis” (Foods, 2022).

Assay [1] deals with T1, human salivary α-amylase (Homo sapiens, UniProt P0DUB6).
T1 construct: purchased Sigma Aldrich
T1 sequence (P0DUB6 16-511): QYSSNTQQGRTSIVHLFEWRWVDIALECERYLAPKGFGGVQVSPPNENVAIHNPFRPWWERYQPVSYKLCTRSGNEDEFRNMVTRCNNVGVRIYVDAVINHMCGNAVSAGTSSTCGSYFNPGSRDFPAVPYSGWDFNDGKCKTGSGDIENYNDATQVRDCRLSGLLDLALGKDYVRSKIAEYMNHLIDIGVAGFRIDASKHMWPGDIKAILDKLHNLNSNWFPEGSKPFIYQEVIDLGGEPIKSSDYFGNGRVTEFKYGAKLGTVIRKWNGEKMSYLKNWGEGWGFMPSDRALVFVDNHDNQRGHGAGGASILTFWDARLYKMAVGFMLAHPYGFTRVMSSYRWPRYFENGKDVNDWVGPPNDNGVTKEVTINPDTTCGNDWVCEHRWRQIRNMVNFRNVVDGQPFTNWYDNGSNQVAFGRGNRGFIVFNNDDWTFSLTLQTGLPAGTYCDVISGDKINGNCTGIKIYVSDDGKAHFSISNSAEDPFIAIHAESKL
In words: α-amylase inhibition assay (CNP-G3, absorbance 405 nm). The settings on record: for IC50: 120 min incubation, pH 6.0, 37 °C. The class given is biochemical. As to the method:
The α-amylase inhibition assay was performed in 96-well microtiter plates. In each well was added 10 μL of propolis sample dissolved in DMSO, and 90 μL of 0.1 M phosphate buffer adjusted to pH 6.0 using 2.0 M H3PO4. To the solution, 80 μL of human salivary α-amylase solution (2.0 U/mL) was added and incubated for approximately 10 min at 37 °C. The enzyme reaction was initiated by adding 20 μL of the substrate solution CNP-G3 (10 mM in phosphate buffer). […] The percentage inhibition was calculated using the same formula as described for the α-glucosidase inhibition assay.

Assay [2] concerns the target T2, porcine pancreas lipase (Sus scrofa, UniProt P00591).
T2 construct: purchased Sigma Aldrich
T2 sequence (P00591 1-450): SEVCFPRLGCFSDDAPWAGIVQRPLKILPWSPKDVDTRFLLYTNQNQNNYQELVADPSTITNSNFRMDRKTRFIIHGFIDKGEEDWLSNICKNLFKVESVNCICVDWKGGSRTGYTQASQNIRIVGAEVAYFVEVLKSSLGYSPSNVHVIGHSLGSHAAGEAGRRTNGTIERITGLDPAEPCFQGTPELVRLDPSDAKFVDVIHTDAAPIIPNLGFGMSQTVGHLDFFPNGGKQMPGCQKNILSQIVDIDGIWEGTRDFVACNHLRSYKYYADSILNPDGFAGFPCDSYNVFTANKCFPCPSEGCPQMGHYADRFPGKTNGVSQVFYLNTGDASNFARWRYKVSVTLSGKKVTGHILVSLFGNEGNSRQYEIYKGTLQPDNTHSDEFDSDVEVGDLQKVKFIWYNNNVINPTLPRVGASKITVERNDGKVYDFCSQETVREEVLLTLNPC
In words: lipase inhibition assay (p-NPB, absorbance 405 nm). It counts as biochemical. To be noted: for IC50: 60 min incubation, pH 7.4, 37 °C. As for the experimental part: The solvents used for extraction (ethanol—EtOH), HPLC (acetonitrile—MeCN), and LC–MS (MeCN and water—H2O) analyses were purchased from Merck. The ultra-pure water used for the HPLC analysis was from an in-house Milli-Q system.
The lipase inhibition assay was performed in 96-well microtiter plates. In each well was added 10 μL of propolis sample dissolved in DMSO and 155 μL of 0.1 M tris-HCl buffer adjusted to pH 7.4 using 1.0 M KOH. To the solution, 25 μL of lipase solution (2000 U/mL) was added and incubated for approximately 15 min at 37 °C. The enzyme reaction was initiated by adding 10 μL of the substrate solution p-NPB (100 mM in methanol). The colorimetric absorbance of the cleavage product after 60 min of incubation was measured at 405 nm, using the EnSpire microplate reader (Perkin Elmer). […] The percentage inhibition was calculated using the same formula as described for the α-glucosidase inhibition assay.

Assay [3] concerns the target α-glucosidase (Saccharomyces cerevisiae, UniProt P53341). In words: biochemical. The settings on record: read-out: α-Glucosidase inhibition. As for the experimental part:
The α-glucosidase inhibition assay was performed at room temperature in 96-well microtiter plates (Sigma Aldrich, Sydney, Australia). The assays were adapted from Zhao et al., with some modifications. Briefly, in each well was added 10 μL of propolis sample at 2 mg/mL in DMSO and 90 μL of 0.1 M phosphate buffer, adjusted to pH 7.5 using 0.6 M KOH. To the solution, 80 μL of α-glucosidase solution (2.0 U/mL) was added and incubated for 10 min at room temperature. The enzyme reaction was initiated by adding 20 μL of p-NPG solution (10 mM in phosphate buffer). The colorimetric absorbance of the cleavage product (the strongly chromogenic p-nitrophenolate ion) after 30 min of incubation was measured at 405 nm using the EnSpire microplate reader (Perkin Elmer, Boston, MA, USA). […] The results were analyzed and calculated in Microsoft Excel, and expressed using the mean for each of the triplicate sets. Inhibition of the enzyme was calculated as follows: Inhibition (%)=(1−Absorbance (sample)/Absorbance (blank) )×100%)

Sequence of α-glucosidase (P53341 whole entry): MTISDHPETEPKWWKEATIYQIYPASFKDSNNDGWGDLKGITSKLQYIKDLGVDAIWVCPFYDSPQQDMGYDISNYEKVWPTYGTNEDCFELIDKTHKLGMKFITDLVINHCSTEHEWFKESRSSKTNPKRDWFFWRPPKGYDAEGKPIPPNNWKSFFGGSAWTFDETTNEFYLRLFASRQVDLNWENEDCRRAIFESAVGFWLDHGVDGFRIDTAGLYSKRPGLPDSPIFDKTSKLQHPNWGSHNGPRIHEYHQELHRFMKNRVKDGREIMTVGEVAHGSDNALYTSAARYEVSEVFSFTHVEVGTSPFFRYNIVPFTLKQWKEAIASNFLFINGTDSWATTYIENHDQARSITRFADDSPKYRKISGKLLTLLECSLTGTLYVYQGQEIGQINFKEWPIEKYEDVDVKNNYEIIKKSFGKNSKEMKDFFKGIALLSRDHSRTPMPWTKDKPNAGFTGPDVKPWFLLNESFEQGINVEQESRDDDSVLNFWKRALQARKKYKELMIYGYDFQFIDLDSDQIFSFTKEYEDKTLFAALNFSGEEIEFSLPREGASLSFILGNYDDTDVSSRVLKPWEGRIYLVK

As usually defined, the IC50 is the midpoint of a concentration-inhibition curve. Higher therefore signals weaker potency in that assay. Take `CC(C)=CCC/C(C)=C/Cc1c([C@@H]2CC(=O)c3c(O)cc(O)cc3O2)ccc(O)c1O` [Compound 1, propolin D (Nymphaeol B)]: the IC50 is 205 µM in assay [1] and 51.8 µM in assay [2].

Turning to `CC(C)=CCC/C(C)=C/Cc1cc([C@@H]2CC(=O)c3c(O)cc(O)cc3O2)cc(O)c1O` [Compound 2, propolin F (Isonymphaeol B)], the figures for the IC50 in assay [1] and in assay [2] were 135 µM and 53 µM, respectively.

Take `CC(C)=CCC/C(C)=C/Cc1c(O)cc2c(c1O)C(=O)C[C@@H](c1ccc(O)c(O)c1)O2` [Compound 3, propolin C (Nymphaeol A)]: the IC50 in assay [1] is 204 µM; in assay [2], 30.3 µM.

Regarding `CC(C)=CCC/C(C)=C/Cc1cc([C@@H]2CC(=O)c3c(O)cc(O)cc3O2)ccc1O` [Compound 4, propolin H (3′-geranyl-naringenin)], the results for the IC50 in assay [1] and in assay [2] were 52.5 µM and 33.1 µM, respectively.

`CC(C)=CCC/C(C)=C/Cc1c([C@@H]2CC(=O)c3c(cc(O)c(CC=C(C)C)c3O)O2)ccc(O)c1O` [Compound 5, propolin G (Nymphaeol C)]: the IC50 was 246 µM in assay [1] and 43.4 µM in assay [2].

Turning to `CC(C)=CCC/C(C)=C/Cc1c(-c2oc3cc(O)cc(O)c3c(=O)c2O)ccc(O)c1O` [Compound 6, solophenol D], the IC50 in assay [1] was found to be 142 µM; in assay [2], 32.3 µM.

The inhibition is the drop in the measured response relative to a control, in per cent. For the molecule `O=C1C[C@@H](c2ccc(O)c(O)c2)Oc2cc(O)cc(O)c21` [Compound 7, eriodictyol, reference compound], the inhibition at 250 µM in assay [1] came to 41%; in assay [3] it was 13%. This molecule also gave an inhibition at 83 µM in assay [2] of 12%.

Regarding `O=C1C[C@@H](c2ccc(O)cc2)Oc2cc(O)cc(O)c21` [Compound 8, naringenin, reference compound], in assay [1], the IC50 is 121 µM and 250 µM produced 73% inhibition. In addition, in assay [3], the inhibition at 250 µM came to 40%. The inhibition at 83 µM in assay [2] worked out at 24%.

For the molecule `O=c1c(O)c(-c2ccc(O)c(O)c2)oc2cc(O)cc(O)c12` [Compound 9, quercetin, reference compound], it took 17.4 µM to reach half-maximal inhibition in assay [1] (IC50). Besides, the inhibition at 83 µM in assay [2] came out at 37%.
